{
  "source": "patent US7538111B2",
  "about": "“Benzenesulphonamide derivatives, method for production and use thereof for treatment of pain” (Laboratoires Fournier S.A., priority 2003, dated 2009)",
  "tested_on": "formalin-induced pain response (paw licking)",
  "assay": "formalin-induced pain response test in mice",
  "assay_type": "in vivo",
  "conditions": "oral route, dose 1 mg/kg, 2nd phase 15 to 30 min after formalin injection",
  "procedure": "The compounds of the present invention were evaluated for their analgesic property using the formalin-induced pain response test in mice (Shibata, M., Ohkubo, T., Takahashi, H. & R. Inoki. Modified formalin test: characteristic biphasic pain response. Pain, 38, 347-352). To summarize, formalin (0.92% in physiological saline) is injected into the hind paw and the period of paw licking, which represents pain intensity, is recorded from 0 to 5 min (1st phase) and from 15 to 30 min (2nd phase) after the injection.",
  "note": "Counter-ions that a name gives are not always drawn.",
  "data": [
    {"smiles": "COc1cc(C)c(S(=O)(=O)N(C)CCOCC(=O)N2CCN([C@@H]3CN4CCC3CC4)CC2)c(C)c1", "note": "[Example 6, N-[2-[2-[4-[(3S)-1-azabicyclo[2.2.2]oct-3-yl]-1-piperazinyl]-2-oxo-ethoxy]ethyl]-4-methoxy-N,2,6-trimethylbenzenesulphonamide, fumarate]", "values": [
      {"measurement": "percentage inhibition of the second paw licking phase induced by formalin", "value": 40, "unit": "%"}
    ]}
  ]
}
